Assay results: publication PMC11931445, “A Novel Compound QO‐83 Alleviates Acute and Chronic Epileptic Seizures in Rodents by Modulating KV7 Channel Activity” (CNS Neuroscience & Therapeutics, 2025)

Experiments:
liver tissue = experiment: Liver toxicity, 28 days gavage; type: in vivo, KM mice; conditions: for liver-body weight ratio compared to control: QO-83 20, Flupirtine 20, APAP 200 mg/kg/d
Experimental: Twenty-four KM mice, half male and half female, weighing between 18 and 22 g, were randomly divided into four groups, each consisting of six mice: a control group, an acetaminophen (APAP) group, a flupirtine (FM) group, and a QO-83 group. The treatment lasted for 28 days, and the drug solvent was a 0.8% sodium carboxymethyl cellulose solution. The control group received an equal amount of 0.8% sodium carboxymethyl cellulose solution. A single dose was administered to each group via gavage, and the dosage volume was calculated based on the body weight of the mice. The control group received 0.8% sodium carboxymethyl cellulose solution, the APAP group received acetaminophen at 200 mg/kg/d, the FM group received […] at 20 mg/kg/d, and the QO-83 group received QO-83 at 20 mg/kg/d. After 28 days of administration, the liver was isolated, fixed in 4% paraformaldehyde for at least 24 h, routinely embedded in paraffin, and sectioned into 3–5 μm continuous slices. Hematoxylin-eosin (HE) staining was performed to observe the pathological structure of the tissue. After staining with HE, the tissue was dehydrated using an alcohol gradient, cleared, and mounted for the observation of liver lesions under a light microscope.

L02 cells = experiment: MTT cytotoxicity; type: cell-based, human; conditions: 100 μM; 24h and 48h
Experimental: Normal human liver L02 cells were cultured in RPMI-1640 complete medium and maintained in a humidified incubator at 37°C with 5% CO2. Cell status was observed daily, and the medium was changed every 1–2 days. During the experiment, cells in good condition and in the logarithmic growth phase were selected. After digestion and collection, the cells were evenly suspended, and the cell suspension concentration was adjusted to 5×10^4 cells/mL. A volume of 150 μL was inoculated per well in a 96-well plate, leaving the surrounding wells for the addition of sterilized PBS (100 μL per well) to prevent edge effects. The plate was then placed in an incubator for further incubation. After 12 h of culturing to allow cell adhesion, the culture medium was aspirated from the 96-well plate. Based on the control, QO-83 was added at concentrations of 0.1 μM, 0.3 μM, 1 μM, 3 μM, 10 μM, 30 μM, and 100 μM, along with Flupirtine (100 μM) in a concentration gradient of 150 μL per well, with six replicates for each group. The control group served as the normal control. The cultures were incubated for 24 and 48 h, respectively. After this period, the culture medium was removed, and 50 μL of 5 mg/mL MTT solution was added to each well, followed by continued incubation for 4 h. […] Finally, the absorbance was measured using a microplate reader (preheated for at least 15 min) at a wavelength of 490 nm.

KV7.2 = target: T1, KV7.2 (Homo sapiens, UniProt O43526); experiment: Manual patch clamp, KV7 currents; type: cell-based; conditions: 20 μM XE991
T1 construct: expressed in transfected cells
Experimental: Pipettes (1–6 MΩ) were filled with a solution of KCl (145 mM), MgCl2 (1 mM), HEPES (10 mM), and EDTA (5 mM). The pH was adjusted to 7.2 with NaOH. Electrophysiological measurements were obtained using an AXON Multiclamp 700 B patch‐clamp amplifier. The bath solution contained NaCl (144 mM), KCl (5 mM), MgCl2 (1 mM), CaCl2 (2 mM), and D‐glucose (10 mM), with the pH adjusted to 7.4 using NaOH. The protocol involved an increase in voltage from −120 mV to 40 mV in increments of 10 mV to evoke a series of KV7 currents (1000 ms per pulse) in the bath solution. For details on cell culture, please see Appendix S1 2.2.1.
Statistical differences between multiple groups (mean ± SEM) were compared using one‐ or two‐way ANOVA. Electrophysiological data were analyzed using SPSS version 21 and OriginPro (version 9.1.0). P Peak inward currents obtained from activation protocols were calculated using the following equation: G = I/(Vm‐EK), where G is conductance, I is peak inward current, Vm is instantaneous membrane potential, and EK is equilibrium potential for the […] channel. Conductance data were normalized using maximum conductance and further fitted to the Boltzmann equation: G=Gmax+Gmin−Gmax/1+expVm−V1/2/k , where G is conductance, V1/2 is midpoint of activation, and k is slope factor. The “Spectrum” module of LabChart was used for data analysis of EEG signals, including the calculation of power density and averaging power spectral density (PSD).
Stable Chinese Hamster Ovary (CHO) cell lines expressing specific Kv7 channel subtypes, including KV7.2 and KV7.2/7.3, were cultured in Minimum Essential Medium (MEM) supplemented with 10% fetal calf serum, 1× nonessential amino acids, […], and […] hygromycin B. Concurrently, KV7.4 and KV7.5 channels were stably expressed in Human Embryonic Kidney 293A (HEK293A) cell lines and nurtured in Dulbecco's Modified Eagle Medium (DMEM) high glucose medium supplemented with 10% fetal bovine serum (FBS), […], and […] hygromycin B.

[1] = test system: pilocarpine-induced seizures; experiment: Pilocarpine-induced status epilepticus model with EEG; type: in vivo, Sprague–Dawley (SD) rats
From the text: For animal experiments, we used adult male Sprague–Dawley (SD) rats weighing between 240 and 260 g. Isoflurane anesthesia was used for all operations. Rats were secured in a stereotaxic frame, and the anterior fontanelle was marked 3 mm posteriorly. Additionally, marks were made approximately 3 mm lateral to the midline on both sides to indicate the insertion points for the positive and negative electrodes. A ground electrode was placed subcutaneously in the occipital lobe to eliminate recording noise. Postoperatively, each animal was housed separately in a single cage and provided food and water ad libitum. After a 3‐day adaptation period, electroencephalograms (EEG) were recorded.
The experimental procedure commenced with an intraperitoneal injection of lithium chloride (127 mg/kg). After 24 h, subcutaneous scopolamine methyl nitrate (1 mg/kg) was administered. […] Twenty minutes later, status epilepticus (SE) was induced by administering pilocarpine (100 mg/kg, i.p.). SE was terminated 2 h later by administering 10% chloral hydrate.
The Pilo group, 2 mg/kg XE991 group, and 2 mg/kg XE991 + 1 mg/kg QO‐83 group received an intraperitoneal injection of lithium chloride (127 mg/kg) 24 h prior to testing. Following this, scopolamine methyl nitrate (1 mg/kg) was administered […], and after 10 min, each group was treated with 25% beta‐cyclodextrin, 2 mg/kg XE991, or 2 mg/kg XE991, respectively. After 15 min, 25% beta‐cyclodextrin, 25% beta‐cyclodextrin, or 1 mg/kg QO‐83 was administered. Finally, 25 min later, pilocarpine (100 mg/kg, i.p.) was administered to induce seizures.
Seizure severity was assessed using a standardized scale ranging from 1 to 5, adapted from previous research criteria. Stage 1 encompasses mouth and facial movements, including wet dog shakes. Stage 2 involves head nodding. Stage 3 is characterized by unilateral forelimb clonus. […] Finally, stage 5 manifests as clonus of all limbs accompanied by falling.

With `CC(=O)Nc1ccc(O)cc1` [APAP, Acetaminophen] the “liver tissue pathology (HE staining)” value (liver tissue; QO-83 20 mg/kg/d, APAP 200 mg/kg/d) was “significant pathological changes” and the “liver-body weight ratio compared to control” value (liver tissue) was “increased significantly”.

`CCOC(=O)Nc1ccc(NCc2ccc(F)cc2)nc1N` [Flupirtine] was tested, and the “liver-body weight ratio compared to control” value (liver tissue) was “increased significantly” and the “effect on cell viability (MTT)” value (L02 cells) was “significantly inhibited cell viability”.

In the case of `O=C1c2ccccc2C(Cc2ccncc2)(Cc2ccncc2)c2ccccc21` [XE991], the “effect on QO-83-induced increase in KV7.2 channel current” value (KV7.2) is reported as “significantly inhibited the increase in KV7.2 channel current”, the “effect on EEG power density (0–50 Hz and δ, θ, α, β bands)” value ([1]; 2 mg/kg XE991, compared to PILO group) is reported as “significantly increased the power density” and the “seizure grade versus model group” value ([1]; 2 mg/kg XE991 alone) is reported as “No significant differences”. The seizure latency ([1]; 2 mg/kg XE991 alone, Pilo model 22.73 ± 6.03 min) was 8.52 ± 4.73 min.
